# According to patent US11667643B2, “RIP1K inhibitors” (priority 2020, dated 2023):
# Key:
# RIPK1 = RIPK1 (Homo sapiens (Human), UniProt Q13546); assay: biochemical; assay type: biochemical; details: RIPK1 enzyme 31 ng/well, 30° C. for 30 minutes, luminescence; read-out: RIPK1 ADP-Glo Kinase (IC50)
# Method: In this example, compounds of the disclosure were evaluated using a biochemical assay using the ADP-Glo™ technology.
# ADP-Glo™ (Promega, Madison, Wis., USA) reagents were thawed at ambient temperature. Kinase Detection Reagent was prepared by mixing kinase detection buffer with the lyophilized kinase detection substrate.
# A […] stock volume of 5× Reaction Kinase Buffer was made by mixing 1000 μl of 1M MgCl2, 500 μl of 1M Tris-HCL pH7.4, 0.5 mg/ml (25 mg) of BSA, and 3475 μl of distilled H2O. A 3 ml 2× working stock volume of Reaction Kinase Buffer was made containing a final concentration of 100 μM DTT and 4 mM MnCl2.
# Components of RIPK1 enzyme (Rigel Pharmaceuticals, South San Francisco, Calif., USA) were thawed on ice. Diluted RIPK1 was prepared in 1× Kinase Reaction Buffer (diluted from 2× buffer) to 31 ng/well.
# 1.0 ul of diluted compound was added to a 384 well plate in duplicate. […] The final reaction volume was 5.0 μl. The plate was quickly centrifuged and the reaction was incubated at 30° C. for 30 minutes. Adding 5 μl of ADP-Glo™ terminated the reaction. The plate was quickly centrifuged and the reaction was incubated at room temperature for 40 minutes. Kinase Detection Reagent was then added and incubated at room temperature for 30 minutes. The relative light unit (RLU) of kinase reaction was determined by luminescent (Luminescence 0.1 s) using a Wallac Victor2 Luminometer (PerkinElmer, Waltham, Mass., USA).
# U937 cells = assay: U937 cell necroptosis assay (TNFa + zVAD, CellTiter-Glo recovery), functional human RIP1 assay; assay type: cell-based; details: Homo sapiens, U-937, 18 h, read-out: U937 Zvad TNF CTG Recovery, U937, TNFa + zVAD (IC50), U937 cells, zVAD-fmk, TNFa 2 ng/mL, 18 hours, CellTiter-Glo
# Method: (§1) In this example, U937 and L929 cells were exposed to compounds of the present disclosure and a cell necroptosis assay was conducted to evaluate compound activity in functional human RIP1 and murine RIP1 assays.
# (§2) U937 and L929 cells were obtained from the American Type Culture Collection (Manassa, Va., USA). Both cells were maintained in logarithmic growth phase in complete RPMI 1640 media (Sigma, ST Louis, Mo., USA) supplemented with 10% fetal bovine serum (Sigma, ST Louis, Mo., USA) at 37° C. with 5% CO2. For necroptosis assay, L929 cells were plated for 18 h in 100 μL/well medium at 10K cells/well in Costar 96-well black clear-bottom plates (Fisher Scientific, Hampton, N.H., USA); U937 cells were plated on the day of the assay in 50 μL/well medium containing 60 uM zVAD-fmk (Lonza, Basel, Switzerland) at 50K cells/well. Medium from L929 cells were removed from the 96-well plates and replaced with 50 μL/well new medium containing 40 uM zVAD-fmk. Each compound of the present disclosure evaluated in this example was serially diluted in DMSO from 2.5 mM in 4-fold dilutions, and then diluted 1:125 in complete medium. 50 μL/well 2× of the compound was then added to the cells in the plates. The cells were pre-incubated with the compound for 1 hour at 37° C. with 5% CO2 and before addition of 10 μL/well 11×TNFa (Peprotech, Rocky Hill, N.J., USA) to give a final concentration of 2 ng/mL for TNFa. The relative amount of necroptosis cells was determined by luminescent using a Wallac Victor2 Luminometer (PerkinElmer, Waltham, Mass., USA) and a CellTiter-Glo® Luminescent Cell Viability Reagent Assay (Promega, Madison, Wis., USA) added per manufacturer instructions after 18 hours of TNFa stimulation at 37° C. with 5% CO2. This example establishes that embodiments of the compounds described herein have unexpectedly potent activity against human RIP1 and murine RIP1, which allows their assessment in in vivo mouse models of disease.
# L929 cells = assay: L929 cell necroptosis assay (TNFa + zVAD, CellTiter-Glo recovery), functional murine RIP1 assay; assay type: cell-based; details: Mus musculus, L929, 18 h, read-out: L929-CTG-recovery, L929, TNFa + zVAD (IC50), L929 cells, zVAD-fmk, TNFa 2 ng/mL, 18 hours, CellTiter-Glo
# Method: as §1, §2
# Chain of RIPK1 (Q13546 whole entry, species assumed): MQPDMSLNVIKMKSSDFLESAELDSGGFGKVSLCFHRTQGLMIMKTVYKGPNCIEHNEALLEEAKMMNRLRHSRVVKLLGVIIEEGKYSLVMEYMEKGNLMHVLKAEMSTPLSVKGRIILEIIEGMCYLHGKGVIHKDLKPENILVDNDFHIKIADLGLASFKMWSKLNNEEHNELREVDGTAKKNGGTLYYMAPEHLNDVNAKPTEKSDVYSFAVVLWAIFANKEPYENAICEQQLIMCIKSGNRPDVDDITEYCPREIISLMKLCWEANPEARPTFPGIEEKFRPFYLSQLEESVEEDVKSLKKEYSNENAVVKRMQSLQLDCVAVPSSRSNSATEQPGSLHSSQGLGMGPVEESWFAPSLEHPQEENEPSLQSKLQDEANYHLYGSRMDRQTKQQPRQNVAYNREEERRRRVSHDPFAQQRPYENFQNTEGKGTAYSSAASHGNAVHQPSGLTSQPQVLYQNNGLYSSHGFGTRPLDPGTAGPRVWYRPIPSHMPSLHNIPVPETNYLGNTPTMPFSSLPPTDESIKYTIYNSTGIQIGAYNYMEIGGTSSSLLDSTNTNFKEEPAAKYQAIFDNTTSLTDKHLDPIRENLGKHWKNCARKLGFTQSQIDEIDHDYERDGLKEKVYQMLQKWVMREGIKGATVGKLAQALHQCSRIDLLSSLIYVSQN
Compound,IC50 (RIPK1),IC50 (U937 cells),IC50 (L929 cells)
"O=C(NC1CCc2ccc(N3CCC4(CCOCC4)CC3)cc2-n2ccnc21)c1ncn(Cc2c(Cl)cccc2Cl)n1 (racemic) [Compound I-61, (±)-N-(9-(3-Oxa-9-azaspiro[5.5]undecan-9-yl)-5,6-dihydro-4H-benzo[f]imidazo[1,2-a]azepin-4-yl)-1-(2,6-dichlorobenzyl)-1H-1,2,4-triazole-3-carboxamide]",0.0862 µM,0.0181 µM,0.106 µM
"O=C(NC1CCc2ccccc2-n2c(Cl)cnc21)c1ncn(Cc2c(Cl)cccc2Cl)n1 (racemic) [Compound I-74, (±)-N-(1-Chloro-5,6-dihydro-4H-benzo[f]imidazo[1,2-a]azepin-4-yl)-1-(2,6-dichlorobenzyl)-1H-1,2,4-triazole-3-carboxamide]",0.054 µM,0.0898 µM,8.62 µM
"O=C(NC1CCc2ccccc2-n2ccnc21)c1cc(Oc2ccccc2)ccn1 (racemic) [Compound I-51, (±)-N-(5,6-Dihydro-4H-benzo[f]imidazo[1,2-a]azepin-4-yl)-4-phenoxypicolinamide]",0.0492 µM,0.125 µM,17.1 µM
"O=C(N[C@H]1COc2ccccc2-n2nnnc21)c1cc(Cc2ccccc2)on1 [Compound I-8, (R)-5-Benzyl-N-(4,5-dihydrobenzo[6]tetrazolo[1,5-d][1,4]oxazepin-4-yl)isoxazole-3-carboxamide]",0.521 µM,4.45 µM,10000 µM
"O=C(NC1CCc2ccccc2-n2cnnc21)c1cc(Oc2ccccc2)ccn1 (racemic) [Compound I-59, (±)-N-(5,6-Dihydro-4H-benzo[f][1,2,4]triazolo[4,3-a]azepin-4-yl)-4-phenoxypicolinamide]",0.118 µM,0.829 µM,10000 µM
"O=C(NC1COc2ccccc2-n2cccc21)c1n[nH]c(Cc2ccccc2)n1 (racemic) [Compound I-34, (±)-5-Benzyl-N-(6,7-dihydrobenzo[b]pyrrolo[1,2-d][1,4]oxazepin-7-yl)-1H-1,2,4-triazole-3-carboxamide]",0.139 µM,1.54 µM,10000 µM
"O=C(N[C@H]1CSc2ccccc2-n2c1noc2=O)c1n[nH]c(Cc2ccccc2)n1 [Compound I-33, 5-Benzyl-N-((4R)-1-oxo-4,5-dihydro-1H-benzo[b][1,2,4]oxadiazolo[4,3-d][1,4]thiazepin-4-yl)-1H-1,2,4-triazole-3-carboxamide]",0.0125 µM,0.0056 µM,5.16 µM
"O=C(N[C@H]1COc2ccccc2-n2nnnc21)c1ncn(Cc2c(Cl)cccc2Cl)n1 [Compound I-11, (R)-1-(2,6-Dichlorobenzyl)-N-(4,5-dihydrobenzo[6]tetrazolo[1,5-d][1,4]oxazepin-4-yl)-1H-1,2,4-triazole-3-carboxamide]",0.0178 µM,0.0343 µM,10000 µM
"O=C(NC1CCc2ccccc2-n2ccnc21)c1ncn(Cc2ccccc2F)n1 (racemic) [Compound I-14, (±)-N-(5,6-Dihydro-4H-benzo[f]imidazo[1,2-a]azepin-4-yl)-1-(2-fluorobenzyl)-1H-1,2,4-triazole-3-carboxamide]",0.0166 µM,0.0066 µM,2.34 µM
"O=C(NC1CCc2ccc(N3CC4(CCOCC4)C3)cc2-n2ccnc21)c1ccn(Cc2ccccc2)n1 (racemic) [Compound I-85, (±)-N-(9-(7-Oxa-2-azaspiro[3.5]nonan-2-yl)-5,6-dihydro-4H-benzo[f]imidazo[1,2-a]azepin-4-yl)-1-benzyl-1H-pyrazole-3-carboxamide]",0.168 µM,0.0309 µM,1.35 µM
"CC(C)(O)C#Cc1ccc2c(c1)-n1nnnc1[C@@H](NC(=O)c1n[nH]c(Cc3ccccc3)n1)CO2 [Compound I-69, (R)-5-Benzyl-N-(9-(3-hydroxy-3-methylbut-1-yn-1-yl)-4,5-dihydrobenzo[b]tetrazolo[1,5-d][1,4]oxazepin-4-yl)-1H-1,2,4-triazole-3-carboxamide]",0.0601 µM,0.787 µM,10000 µM
"O=C(NC1COc2ccccc2-n2cccc21)c1ncn(Cc2c(Cl)cccc2Cl)n1 (racemic) [Compound I-27, (±)-1-(2,6-Dichlorobenzyl)-N-(6,7-dihydrobenzo[b]pyrrolo[1,2-d][1,4]oxazepin-7-yl)-1H-1,2,4-triazole-3-carboxamide]",0.0684 µM,0.034 µM,5.55 µM
"O=C(NC1CCc2ccccc2-n2c1nc(Cl)c2Cl)c1n[nH]c(Cc2ccccc2)n1 (racemic) [Compound I-80, (±)-5-Benzyl-N-(1,2-dichloro-5,6-dihydro-4H-benzo[f]imidazo[1,2-a]azepin-4-yl)-1H-1,2,4-triazole-3-carboxamide]",1.87 µM,83.4 µM,10000 µM
"O=C(N[C@H]1CCc2ccc(N3CCC4(CCOCC4)CC3)cc2-n2ccnc21)c1n[nH]c(Cc2ccccc2)n1 [Compound I-83, (S)—N-(9-(3-Oxa-9-azaspiro[5.5]undecan-9-yl)-5,6-dihydro-4H-benzo[f]imidazo[1,2-a]azepin-4-yl)-5-benzyl-1H-1,2,4-triazole-3-carboxamide]",0.0435 µM,0.0043 µM,2.12 µM
"O=C(N[C@H]1COc2ccccc2-n2c1noc2=O)c1n[nH]c(Cc2ccc(F)cc2)n1 [Compound I-50, 5-(4-Fluorobenzyl)-N-((4R)-1-oxo-4,5-dihydro-1H-benzo[6][1,2,4]oxadiazolo[4,3-d][1,4]oxazepin-4-yl)-1H-1,2,4-triazole-3-carboxamide]",0.109 µM,0.246 µM,10000 µM
"O=C(N[C@H]1COc2ncccc2-n2c1noc2=O)c1cc(Cc2ccccc2)on1 [Compound I-46, 5-Benzyl-N-((4R)-1-oxo-4,5-dihydro-1H-[1,2,4]oxadiazolo[4,3-d]pyrido[2,3-b][1,4]oxazepin-4-yl)isoxazole-3-carboxamide]",4.41 µM,39.4 µM,10000 µM
"O=C(NC1CCc2ccc(N3CCC4(CCOCC4)CC3)cc2-n2ccnc21)c1ccn(Cc2ccccc2)n1 (racemic) [Compound I-77, (±)-N-(9-(3-Oxa-9-azaspiro[5.5]undecan-9-yl)-5,6-dihydro-4H-benzo[f]imidazo[1,2-a]azepin-4-yl)-1-benzyl-1H-pyrazole-3-carboxamide]",0.111 µM,0.0096 µM,4.08 µM
"O=C(NC1COc2ccccc2-n2cccc21)c1n[nH]c(Cc2ccc(F)cc2)n1 (racemic) [Compound I-37, (±)-N-(6,7-Dihydrobenzo[b]pyrrolo[1,2-d][1,4]oxazepin-7-yl)-5-(4-fluorobenzyl)-1H-1,2,4-triazole-3-carboxamide]",1.14 µM,4.07 µM,10000 µM
"O=C(N[C@H]1CSc2ccccc2-n2c1noc2=O)c1ncn(Cc2ccc(F)cc2)n1 [Compound I-32, 1-(4-Fluorobenzyl)-N-((4R)-1-oxo-4,5-dihydro-1H-benzo[b][1,2,4]oxadiazolo[4,3-d][1,4]thiazepin-4-yl)-1H-1,2,4-triazole-3-carboxamide]",0.0133 µM,0.0016 µM,0.674 µM
"O=C(N[C@H]1CSc2ccccc2-n2nnnc21)c1n[nH]c(Cc2ccc(F)cc2)n1 [Compound I-30, (R)—N-(4,5-Dihydrobenzo[&]tetrazolo[1,5-d][1,4]thiazepin-4-yl)-5-(4-fluorobenzyl)-1H-1,2,4-triazole-3-carboxamide]",0.0186 µM,0.0679 µM,10000 µM
